Reference: patent US8288363B2, “Medicaments for anti-herpes virus treatments” (ASE & BIO, priority 2006, dated 2012)

How the values were obtained:
Assay in all cases: Anti-herpes activity, viability of infected vero cells (neutral red)
Settings in all cases: incubation time 72 hours
HSV-1 = type: cell-based, herpes simplex virus 1
Method: (§1) This method is based on the principle that living cells absorb neutral red, which is a vital stain. The optical density of the medium was measured at the maximum absorption wavelength of neutral red, that is to say 540 nm, using a spectrophotometer (SpectraCount™, microplate photometer, Packard). The optical density at 540 nm is proportional to the number of living cells in an infected culture (McLaren et al., Antiviral Research, 1983; 3: 223-234 and Langlois et al., Standardization, 1986, 14: 201-211).
(§2) The effective concentration (EC 50%), that is to say the concentration of the sulphated polysaccharide which enables infection of 50% of the cells of a culture to be inhibited, was measured for each viral strain.
(§3) The determination of the EC50 was carried out in 96-well microtitre plates in accordance with the following protocol. Vero cells are seeded at a cell density of 3.5·10^4 cells/well in 100 μl of MEM medium containing 8% FCS. For each viral suspension defined by its MOI: • the negative control column was filled with 100 μl of MEM medium with 8% FCS, • the virus control column was filled with 50 μl of viral suspension having the required MOI and with 50 μl of MEM medium with 8% FCS, • the PS3 control column was filled with 50 μl of PS3 having the desired concentration range or with 50 μl of acyclovir (Zovirax 0.05-5 μg/ml • finally, all the other columns were filled successively with 50 μl of PS3 having the required concentration range or with 50 μl of acyclovir (Zovirax 0.05-5 μg/ml) and with 50 μl of the viral suspension having the desired MOI.
(§4) The EC50 corresponding to the concentration which enables the cytopathic effect of the virus to be reduced by 50% was calculated in accordance with the following formula: […]
(§5) The anti-herpes activity of PS3 was evaluated and compared on each viral suspension of HSV-1, HSV-1R, HSV-2 and HSV-2R defined by an MOI of 0.01 ID50/cell for a cell concentration of 350,000 cells/ml, after incubation times of 48 and 72 hours.
(§6) This series of experiments was carried out applying the protocol enabling the EC50 to be determined, as described in Example 3.
(§7) The therapeutic indices (TI) of PS3, as well as three other reference products, that is to say acyclovir, dextran sulphate and phycarine, were determined in parallel for each viral strain.
(§8) The therapeutic index (TI) represents the ratio between the maximum non-toxic dose (or a dose inducing a quantified toxicity) and the dose inducing a favourable pharmacological effect.

[1] = system: acyclovir-resistant strain HSV-1R; type: cell-based, herpes simplex virus 1
Method: as §1, §2, §3, §4, §5, §6, §7, §8

HSV-2 = type: cell-based, herpes simplex virus 2
Method: as §1, §2, §3, §4, §5, §6, §7, §8

[2] = system: acyclovir-resistant strain HSV-2R; type: cell-based, herpes simplex virus 2
Method: as §1, §2, §3, §4, §5, §6, §7, §8

dextran sulphate [reference compound]
Therapeutic index HSV-1 (HSV-1): >868 | Therapeutic index HSV-1R [1]: >641 | Therapeutic index HSV-2 (HSV-2): >3,571 | Therapeutic index HSV-2R [2]: >4,545
